Where two headings read alike, the source gives them in different places.
Assays:
RR/PTCL = conditions: historical benchmark, cited from earlier work
[1] = system: tumor micro-environment (TME); conditions: cited from earlier work
RR/ATL [2] = assay: Historical benchmarks for RR/ATL treatments; type: in vivo, human; conditions: Phase I, listed among benchmarks
Procedure: (§1) The compounds of formula I were used as a monotherapy for relapsed or refractory aggressive adult T-cell lymphoma (“RR/ATL”). A dosage of 40 mg biw was approved for this study. A summary of the results is found in Table 12. […] The time after prior treatment was 88 days (vs. 234 days for lenalidomide P2 trial). All patients had received mogamulizumab (“moga”) (lenalidomide ORR in moga patients was 18%).

[3] = system: relapsed or refractory peripheral T-cell lymphoma (RR/PTCL); assay: Phase 2 monotherapy in relapsed or refractory peripheral T-cell lymphoma; type: in vivo, human
Procedure: The compounds of formula I were used as a monotherapy for relapsed or refractory peripheral T-cell lymphoma (“RR/PTCL”). A dosage of 40 mg biw was approved for this study. A summary of the results is found in Table 10. […] The time after prior treatment was 96 days (vs. 222 days for romidepsin P2 trial). […] The median PFS (months) was 7.6.

[4] = system: relapsed or refractory aggressive adult T-cell lymphoma (RR/ATL); assay: Phase 2 monotherapy in relapsed or refractory aggressive adult T-cell lymphoma; type: in vivo, human; conditions: 20 evaluable, 40 mg biw monotherapy
Procedure: as §1

[5] = Tolerability of compounds of formula I, nivolumab and their combination (adverse events); type: in vivo, human; conditions: for TRAE Anemia G1-2 / TRAE Anemia G3 / TRAE Anemia G4 / TRAE Diarrhea G1-2 / TRAE Diarrhea G3 / TRAE Diarrhea G4 / TRAE Fatigue G1-2 / TRAE Fatigue G3 / TRAE Fatigue G4 / TRAE Hypophospatemia G1-2 / TRAE Hypophospatemia G3 / TRAE Hypophospatemia G4 / TRAE Lymphocyte decrease G1-2 / TRAE Lymphocyte decrease G3 / TRAE Lymphocyte decrease G4 / TRAE Neutrophil decrease G1-2 / TRAE Neutrophil decrease G3 / TRAE Neutrophil decrease G4 / TRAE Platelet decrease G1-2 / TRAE Platelet decrease G3 / TRAE Platelet decrease G4 / TRAE WBC decrease G1-2 / TRAE WBC decrease G3 / TRAE WBC decrease G4: TRAE >= 5% frequency, by association
Procedure: The tolerability of the compounds of formula I, nivolumab, and a combination of the compounds of formula I and nivolumab were tested. The Phase 2 clinical dosage of 30 mg BIW of the compounds of formula I was administered.

RR/ATL [6] = conditions: cited from earlier work; for ORR: historical benchmark, RR/ATL
[7] = 43 evaluable, 40 mg biw monotherapy
[8] = number of patients, 43 evaluable, 40 mg biw monotherapy
[9] = less frequent TRAEs associated with NIVO alone

For `Nc1cc(F)ccc1NC(=O)c1ccc(CNC(=O)/C=C/c2cccnc2)cc1` [Epidaza], the “ORR (PMS)” value (RR/PTCL; value in brackets, PMS) is given as 35% and the ORR (RR/PTCL) is given as 28%.

In the case of `O=c1[nH]cnc2c([C@@H]3N[C@H](CO)[C@@H](O)[C@H]3O)c[nH]c12` [Forodesine], the ORR (RR/PTCL) is given as 22%.

For `Nc1cc(F)ccc1NC(=O)c1ccc(CNC(=O)/C=C/c2cccnc2)cc1` [HBI-8000, N-(2-amino-4-fluorophenyl)-4-[[[(2E)-1-oxo-3-(3-pyridinyl)-2-propen-1-yl]amino]methyl]benzamide], the “PD-1 and PD-L1 expression” value ([1]; "cold" tumors) is listed as “increases”, the “apoptosis scores and signatures” value ([1]; tumor cells) is listed as “increasing” and the “conversion of M2 (suppressive) to M1 (antitumor) macrophages” value ([1]; tumor micro-environment) is listed as “promotes”. The “influx of CD8+ T cells and NK cells” value ([1]; tumor micro-environment) was “increases”, the “number and activity of regulatory T cells (TREGs), myeloid-derived suppressor cells (MDSCs)” value ([1]; tumor micro-environment) was “reduces” and the “ratio of active CD8+ effector T cells to "exhausted" CD8 T cells” value ([1]; tumor micro-environment) was “increases”. For the same molecule, the ORR (RR/ATL [2]) was 75%, the DCR [3, 7] was 74% and the ORR [3, 7] was 46%. For the same molecule, the “median PFS” value ([3]; estimated, PD date by investigator judgement, FIG. 7A) was 7.6 months, the “Complete Responses” value [3, 8] was 4 and the “Partial Responses” value [3, 8] was 16. The “Stable Disease” value [3, 8] was 12, the DCR [4] was 60% and the ORR [4] was 40%. The “Stable Disease” value ([4]; number of patients) was 4, the “Partial Responses” value ([4]; number of patients, all had received mogamulizumab) was 8 and the “TRAE Anemia G1-2” value [5] was 14 (22) n (% of N). For the same molecule, the “TRAE Anemia G3” value [5] was 1 (2) n (% of N), the “TRAE Anemia G4” value [5] was 0 n (% of N) and the “TRAE Diarrhea G1-2” value [5] was 0 n (% of N). For the same molecule, the “TRAE Diarrhea G3” value [5] was 0 n (% of N), the “TRAE Diarrhea G4” value [5] was 0 n (% of N) and the “TRAE Fatigue G1-2” value [5] was 0 n (% of N). For the same molecule, the “TRAE Fatigue G3” value [5] was 0 n (% of N), the “TRAE Fatigue G4” value [5] was 0 n (% of N) and the “TRAE Hypophospatemia G1-2” value [5] was 6 (10) n (% of N). The “TRAE Hypophospatemia G3” value [5] was 4 (6) n (% of N), the “TRAE Hypophospatemia G4” value [5] was 0 n (% of N) and the “TRAE Lymphocyte decrease G1-2” value [5] was 0 n (% of N). The “TRAE Lymphocyte decrease G3” value [5] was 0 n (% of N), the “TRAE Lymphocyte decrease G4” value [5] was 0 n (% of N) and the “TRAE Neutrophil decrease G1-2” value [5] was 8 (13) n (% of N). For the same molecule, the “TRAE Neutrophil decrease G3” value [5] was 5 (8) n (% of N), the “TRAE Neutrophil decrease G4” value [5] was 1 (2) n (% of N) and the “TRAE Platelet decrease G1-2” value [5] was 23 (37) n (% of N). For the same molecule, the “TRAE Platelet decrease G3” value [5] was 3 (5) n (% of N), the “TRAE Platelet decrease G4” value [5] was 0 n (% of N) and the “TRAE WBC decrease G1-2” value [5] was 11 (17) n (% of N). For the same molecule, the “TRAE WBC decrease G3” value [5] was 1 (2) n (% of N), the “TRAE WBC decrease G4” value [5] was 0 n (% of N) and the “share of TRAEs associated with the agent” value ([5]; among TRAEs, 63 subjects) was 39%.

For `Nc1cccc2c1CN(C1CCC(=O)NC1=O)C2=O` (centres unmarked) [Lenalidomide], the ORR (RR/ATL [6]) is listed as 42% and the “ORR in moga patients” value (RR/ATL [6]; patients who had received mogamulizumab, lenalidomide P2 trial) is listed as 18%.

For `C#CCC(Cc1cnc2nc(N)nc(N)c2n1)c1ccc(C(=O)N[C@@H](CCC(=O)O)C(=O)O)cc1` (some centres unmarked) [Pralatrexate], the ORR (RR/PTCL) is listed as 45%.

In the case of “NIVO: fully human monoclonal antibody directed against PD-1”, the “TRAE Anemia G1-2” value [5] is reported as 0 n (% of N), the “TRAE Anemia G3” value [5] is reported as 0 n (% of N) and the “TRAE Anemia G4” value [5] is reported as 0 n (% of N). For the same molecule, the “TRAE Diarrhea G1-2” value [5] was 4 (6) n (% of N), the “TRAE Diarrhea G3” value [5] was 1 (2) n (% of N) and the “TRAE Diarrhea G4” value [5] was 0 n (% of N). For the same molecule, the “TRAE Fatigue G1-2” value [5] was 0 n (% of N), the “TRAE Fatigue G3” value [5] was 0 n (% of N) and the “TRAE Fatigue G4” value [5] was 0 n (% of N). The “TRAE Hypophospatemia G1-2” value [5] was 0 n (% of N), the “TRAE Hypophospatemia G3” value [5] was 0 n (% of N) and the “TRAE Hypophospatemia G4” value [5] was 0 n (% of N). The “TRAE Lymphocyte decrease G1-2” value [5] was 0 n (% of N), the “TRAE Lymphocyte decrease G3” value [5] was 0 n (% of N) and the “TRAE Lymphocyte decrease G4” value [5] was 0 n (% of N). The “TRAE Neutrophil decrease G1-2” value [5] was 0 n (% of N), the “TRAE Neutrophil decrease G3” value [5] was 0 n (% of N) and the “TRAE Neutrophil decrease G4” value [5] was 0 n (% of N). The “TRAE Platelet decrease G1-2” value [5] was 0 n (% of N), the “TRAE Platelet decrease G3” value [5] was 0 n (% of N) and the “TRAE Platelet decrease G4” value [5] was 0 n (% of N). The “TRAE WBC decrease G1-2” value [5] was 0 n (% of N), the “TRAE WBC decrease G3” value [5] was 0 n (% of N) and the “TRAE WBC decrease G4” value [5] was 0 n (% of N). The “TRAE TSH increase” value [5, 9] was 5 n, the TRAE amylase increase [5, 9] was 4 n and the TRAE lipase increase [5, 9] was 6 n. For the same molecule, the TRAE rash [5, 9] was 10 n.

B1: Mogamulizumab: RR/ATL treatment, historical benchmark (antibody, chains of the INN, looked up, V domains shown)
VH: EVQLVESGGDLVQPGRSLRLSCAASGFIFSNYGMSWVRQAPGKGLEWVATISSASTYSYYPDSVKGRFTISRDNAKNSLYLQMNSLRVEDTALYYCGRHSDGNFAFGYWGQGTLVTVSS
VL: DVLMTQSPLSLPVTPGEPASISCRSSRNIVHINGDTYLEWYLQKPGQSPQLLIYKVSNRFSGVPDRFSGSGSGTDFTLKISRVEAEDVGVYYCFQGSLLPWTFGQGTKVEIK
For B1, the ORR (RR/ATL [6]) is given as 50%.

— patent US20200383961A1, “TRIPLET THERAPIES OF HDAC INHIBITORS, PD-L1 AND/OR PD-1 INHIBITORS, AND CTLA-4 INHIBITORS” (HUYA Bioscience International, LLC, priority 2019, published 2020)
